Experimental data taken from the kinase profiling compilation of Christmann-Franck et al. (2016).
Values joined by “and” are separate entries in the source; they are usually repeats but may differ in a detail not shown here. Equal values may be shown once.

Tests used:
Assay in all cases: radiometric filter-binding kinase assay, Kinase HotSpot
Details in all cases: compound 0.5 µM; ATP 10 µM
CSNK1G1 (human) = CSNK1G1 (human) (UniProt Q9HCP0)
DMPK (human) = DMPK (human) (UniProt Q09013)
BMX (human) = BMX (human) (UniProt P51813)
MAPK13 (human) = MAPK13 (human) (UniProt O15264)
CAMK2G (human) = CAMK2G (human) (UniProt Q13555)
PRKG1 (human) = PRKG1 (human) (UniProt Q13976)
MELK (human) = MELK (human) (UniProt Q14680)
TTK (human) = TTK (human) (UniProt P33981)
DDR2 (human) = DDR2 (human) (UniProt Q16832)
EPHA8 (human) = EPHA8 (human) (UniProt P29322)
SLK (human) = SLK (human) (UniProt Q9H2G2)
MYLK (human) = MYLK (human) (UniProt Q15746)
FGFR4 (human) = FGFR4 (human) (UniProt P22455)
PAK7 (human) = PAK7 (human) (UniProt Q9P286)
INSR (human) = INSR (human) (UniProt P06213)
PLK3 (human) = PLK3 (human) (UniProt Q9H4B4)
TEC (human) = TEC (human) (UniProt P42680)
CDK6 CCND1 (human) = CDK6 CCND1 (human) (UniProt Q00534+P24385)
MATK (human) = MATK (human) (UniProt P42679)
CDK5 CDK5R1 p35 (human) = CDK5 CDK5R1 p35 (human) (UniProt Q00535+Q15078)
SRPK3 (human) = SRPK3 (human) (UniProt Q9UPE1)
SRC (human) = SRC (human) (UniProt P12931)
MAPK14 (human) = MAPK14 (human) (UniProt Q16539)
AKT2 (human) = AKT2 (human) (UniProt P31751)
STK25 (human) = STK25 (human) (UniProt O00506)
HIPK1 (human) = HIPK1 (human) (UniProt Q86Z02)
NLK (human) = NLK (human) (UniProt Q9UBE8)
GRK5 (human) = GRK5 (human) (UniProt P34947)
IRAK1 (human) = IRAK1 (human) (UniProt P51617)
EPHB4 (human) = EPHB4 (human) (UniProt P54760)
FGFR2 (human) = FGFR2 (human) (UniProt P21802)
CDK9 CCNT1 (human) = CDK9 CCNT1 (human) (UniProt P50750+O60563)
SGK2 (human) = SGK2 (human) (UniProt Q9HBY8)
HIPK3 (human) = HIPK3 (human) (UniProt Q9H422)
PAK2 (human) = PAK2 (human) (UniProt Q13177)
STK33 (human) = STK33 (human) (UniProt Q9BYT3)
PLK2 (human) = PLK2 (human) (UniProt Q9NYY3)
GSK3A (human) = GSK3A (human) (UniProt P49840)
PRKACA (human) = PRKACA (human) (UniProt P17612)
PRKCG (human) = PRKCG (human) (UniProt P05129)
BLK (human) = BLK (human) (UniProt P51451)
EPHA7 (human) = EPHA7 (human) (UniProt Q15375)

Sequence of INSR (human) (P06213 whole entry, looked up): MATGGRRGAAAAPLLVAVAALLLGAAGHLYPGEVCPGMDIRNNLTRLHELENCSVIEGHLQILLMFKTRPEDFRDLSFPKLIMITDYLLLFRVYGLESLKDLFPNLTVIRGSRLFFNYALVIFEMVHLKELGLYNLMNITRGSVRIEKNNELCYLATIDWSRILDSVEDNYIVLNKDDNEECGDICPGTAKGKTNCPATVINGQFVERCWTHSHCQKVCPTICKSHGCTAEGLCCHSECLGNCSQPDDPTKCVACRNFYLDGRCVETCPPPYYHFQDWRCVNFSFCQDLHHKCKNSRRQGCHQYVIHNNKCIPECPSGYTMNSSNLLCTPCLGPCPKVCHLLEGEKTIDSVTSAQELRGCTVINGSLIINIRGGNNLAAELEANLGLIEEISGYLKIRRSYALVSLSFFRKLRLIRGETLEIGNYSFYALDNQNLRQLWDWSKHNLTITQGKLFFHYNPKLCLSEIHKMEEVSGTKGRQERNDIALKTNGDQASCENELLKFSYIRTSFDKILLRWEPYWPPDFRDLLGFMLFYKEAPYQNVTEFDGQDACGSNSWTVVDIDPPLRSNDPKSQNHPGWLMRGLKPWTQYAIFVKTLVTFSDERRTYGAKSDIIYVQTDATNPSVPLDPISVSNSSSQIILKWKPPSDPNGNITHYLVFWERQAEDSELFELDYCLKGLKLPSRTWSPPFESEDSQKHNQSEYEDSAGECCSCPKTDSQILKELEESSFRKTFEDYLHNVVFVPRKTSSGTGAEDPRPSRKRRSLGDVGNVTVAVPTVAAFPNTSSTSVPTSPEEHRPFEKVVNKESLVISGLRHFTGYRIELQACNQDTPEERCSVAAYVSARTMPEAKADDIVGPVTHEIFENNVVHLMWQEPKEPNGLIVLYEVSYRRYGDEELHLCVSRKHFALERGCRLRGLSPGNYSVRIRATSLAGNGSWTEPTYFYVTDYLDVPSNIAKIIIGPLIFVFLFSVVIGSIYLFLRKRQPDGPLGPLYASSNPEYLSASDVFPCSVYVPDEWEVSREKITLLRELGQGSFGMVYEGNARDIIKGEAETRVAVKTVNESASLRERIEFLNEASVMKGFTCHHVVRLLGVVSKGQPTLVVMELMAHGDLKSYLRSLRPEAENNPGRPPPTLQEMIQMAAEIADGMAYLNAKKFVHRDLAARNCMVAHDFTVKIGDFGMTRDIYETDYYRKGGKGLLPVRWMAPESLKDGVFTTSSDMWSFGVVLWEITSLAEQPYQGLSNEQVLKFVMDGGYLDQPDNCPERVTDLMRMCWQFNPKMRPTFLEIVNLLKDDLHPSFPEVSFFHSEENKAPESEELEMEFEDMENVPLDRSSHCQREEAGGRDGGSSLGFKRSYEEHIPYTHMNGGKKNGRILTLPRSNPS
Sequence of HIPK1 (human) (Q86Z02 whole entry, looked up): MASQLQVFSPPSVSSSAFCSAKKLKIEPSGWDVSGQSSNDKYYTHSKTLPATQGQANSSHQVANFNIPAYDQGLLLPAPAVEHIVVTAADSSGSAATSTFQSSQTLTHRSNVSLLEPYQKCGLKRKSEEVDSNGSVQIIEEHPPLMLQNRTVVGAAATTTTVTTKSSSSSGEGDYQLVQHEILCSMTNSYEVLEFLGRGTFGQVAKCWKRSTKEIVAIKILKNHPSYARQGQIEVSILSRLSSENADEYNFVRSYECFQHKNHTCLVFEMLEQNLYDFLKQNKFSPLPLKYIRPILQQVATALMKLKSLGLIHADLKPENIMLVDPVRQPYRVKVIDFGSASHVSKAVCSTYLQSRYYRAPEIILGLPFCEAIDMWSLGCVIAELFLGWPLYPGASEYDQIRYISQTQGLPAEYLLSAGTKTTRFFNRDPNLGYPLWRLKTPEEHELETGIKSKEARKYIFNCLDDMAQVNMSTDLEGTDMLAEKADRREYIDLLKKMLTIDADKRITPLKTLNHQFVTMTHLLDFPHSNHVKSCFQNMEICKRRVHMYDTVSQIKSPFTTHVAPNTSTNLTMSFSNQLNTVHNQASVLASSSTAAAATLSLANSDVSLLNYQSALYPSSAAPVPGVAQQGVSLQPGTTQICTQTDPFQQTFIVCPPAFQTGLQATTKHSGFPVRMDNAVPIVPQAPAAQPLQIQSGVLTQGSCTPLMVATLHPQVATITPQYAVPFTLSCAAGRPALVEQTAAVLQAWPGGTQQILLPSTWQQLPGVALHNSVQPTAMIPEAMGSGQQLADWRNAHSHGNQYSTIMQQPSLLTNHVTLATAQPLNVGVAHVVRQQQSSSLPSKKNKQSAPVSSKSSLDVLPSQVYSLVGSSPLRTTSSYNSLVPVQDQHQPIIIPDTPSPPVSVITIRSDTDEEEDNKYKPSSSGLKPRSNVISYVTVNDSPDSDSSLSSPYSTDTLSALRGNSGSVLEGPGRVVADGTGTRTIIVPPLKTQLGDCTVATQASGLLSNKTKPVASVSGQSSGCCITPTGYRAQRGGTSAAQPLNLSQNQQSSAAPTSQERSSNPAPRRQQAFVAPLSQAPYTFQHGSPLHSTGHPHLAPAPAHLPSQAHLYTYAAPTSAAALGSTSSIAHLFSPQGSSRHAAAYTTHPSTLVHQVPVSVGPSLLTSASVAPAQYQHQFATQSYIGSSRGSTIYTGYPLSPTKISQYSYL
Sequence of BMX (human) (P51813 whole entry, looked up): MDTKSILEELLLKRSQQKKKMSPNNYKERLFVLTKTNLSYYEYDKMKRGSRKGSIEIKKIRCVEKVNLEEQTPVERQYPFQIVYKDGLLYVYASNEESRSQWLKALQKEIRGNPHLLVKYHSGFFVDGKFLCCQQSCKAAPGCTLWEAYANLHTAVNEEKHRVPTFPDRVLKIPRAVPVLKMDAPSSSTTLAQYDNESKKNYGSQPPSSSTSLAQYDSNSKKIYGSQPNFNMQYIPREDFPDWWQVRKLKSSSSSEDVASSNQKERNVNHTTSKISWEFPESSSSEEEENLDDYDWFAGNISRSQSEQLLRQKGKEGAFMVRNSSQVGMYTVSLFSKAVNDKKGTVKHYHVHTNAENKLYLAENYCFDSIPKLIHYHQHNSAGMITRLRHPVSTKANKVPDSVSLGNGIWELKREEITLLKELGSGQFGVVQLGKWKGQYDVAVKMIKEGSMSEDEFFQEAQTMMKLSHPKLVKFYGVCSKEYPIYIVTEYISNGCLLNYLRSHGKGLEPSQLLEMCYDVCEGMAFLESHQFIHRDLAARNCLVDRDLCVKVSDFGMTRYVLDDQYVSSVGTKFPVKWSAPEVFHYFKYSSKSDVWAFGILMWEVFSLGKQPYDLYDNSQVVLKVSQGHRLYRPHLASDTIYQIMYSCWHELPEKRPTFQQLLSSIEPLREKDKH
Sequence of STK33 (human) (Q9BYT3 whole entry, looked up): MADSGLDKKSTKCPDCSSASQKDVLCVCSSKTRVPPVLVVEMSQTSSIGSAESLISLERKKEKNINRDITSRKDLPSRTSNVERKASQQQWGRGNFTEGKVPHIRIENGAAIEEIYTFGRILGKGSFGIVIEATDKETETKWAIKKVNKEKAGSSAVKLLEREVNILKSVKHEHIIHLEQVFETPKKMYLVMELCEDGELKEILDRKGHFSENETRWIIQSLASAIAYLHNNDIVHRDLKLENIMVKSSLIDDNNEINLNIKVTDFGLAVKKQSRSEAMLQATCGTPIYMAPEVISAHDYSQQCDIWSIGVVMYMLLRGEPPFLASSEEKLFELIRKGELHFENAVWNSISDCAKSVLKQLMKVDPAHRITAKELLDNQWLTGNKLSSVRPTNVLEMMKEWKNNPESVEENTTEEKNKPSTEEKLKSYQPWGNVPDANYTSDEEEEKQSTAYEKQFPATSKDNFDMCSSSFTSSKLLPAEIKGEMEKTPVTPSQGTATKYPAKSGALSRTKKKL
Sequence of FGFR2 (human) (P21802 whole entry, looked up): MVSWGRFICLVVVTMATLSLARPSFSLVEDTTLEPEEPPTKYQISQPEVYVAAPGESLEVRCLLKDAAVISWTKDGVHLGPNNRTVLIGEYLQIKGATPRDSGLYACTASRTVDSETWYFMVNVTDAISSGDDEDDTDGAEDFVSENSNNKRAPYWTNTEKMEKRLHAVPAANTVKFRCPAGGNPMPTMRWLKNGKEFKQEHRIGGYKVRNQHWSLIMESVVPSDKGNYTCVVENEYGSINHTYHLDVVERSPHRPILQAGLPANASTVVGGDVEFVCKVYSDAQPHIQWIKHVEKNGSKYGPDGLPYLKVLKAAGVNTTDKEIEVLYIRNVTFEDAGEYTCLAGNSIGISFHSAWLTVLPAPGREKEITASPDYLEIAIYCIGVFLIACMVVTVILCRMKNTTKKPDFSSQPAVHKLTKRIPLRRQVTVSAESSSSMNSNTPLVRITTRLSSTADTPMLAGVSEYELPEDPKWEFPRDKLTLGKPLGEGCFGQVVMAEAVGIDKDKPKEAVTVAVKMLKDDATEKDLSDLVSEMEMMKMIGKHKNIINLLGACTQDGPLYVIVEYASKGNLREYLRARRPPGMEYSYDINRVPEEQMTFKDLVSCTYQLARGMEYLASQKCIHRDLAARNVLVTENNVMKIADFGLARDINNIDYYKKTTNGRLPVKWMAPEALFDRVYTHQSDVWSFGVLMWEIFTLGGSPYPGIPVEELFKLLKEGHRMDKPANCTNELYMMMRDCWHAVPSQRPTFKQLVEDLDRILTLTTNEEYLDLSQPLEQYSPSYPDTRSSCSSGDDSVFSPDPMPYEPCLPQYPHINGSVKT
Sequence of AKT2 (human) (P31751 whole entry, looked up): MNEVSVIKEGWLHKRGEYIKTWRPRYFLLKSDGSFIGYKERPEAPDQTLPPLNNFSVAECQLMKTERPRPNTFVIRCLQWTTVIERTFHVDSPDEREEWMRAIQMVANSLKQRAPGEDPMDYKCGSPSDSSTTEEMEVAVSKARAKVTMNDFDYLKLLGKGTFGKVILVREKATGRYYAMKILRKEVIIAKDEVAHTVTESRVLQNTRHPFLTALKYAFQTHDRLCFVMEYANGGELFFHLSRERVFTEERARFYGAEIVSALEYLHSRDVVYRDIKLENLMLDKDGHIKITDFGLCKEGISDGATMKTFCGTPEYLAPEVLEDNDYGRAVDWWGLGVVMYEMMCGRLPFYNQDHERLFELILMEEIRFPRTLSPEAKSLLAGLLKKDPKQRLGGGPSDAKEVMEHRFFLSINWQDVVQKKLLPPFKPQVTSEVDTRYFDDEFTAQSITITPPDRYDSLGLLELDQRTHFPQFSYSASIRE

O=C1Nc2ccccc2/C1=C1\Nc2ccccc2\C1=N/O
residual activity (CSNK1G1 (human)): 86.8%
residual activity (DMPK (human)): 101%
residual activity (BMX (human)): 80.1%
residual activity (MAPK13 (human)): 105%
residual activity (CAMK2G (human)): 69.8%
residual activity (PRKG1 (human)): 86% and 90.1%
residual activity (MELK (human)): 33.3%
residual activity (TTK (human)): 68%
residual activity (DDR2 (human)): 101%
residual activity (EPHA8 (human)): 91.1%
residual activity (SLK (human)): 78.7%
residual activity (MYLK (human)): 65%
residual activity (FGFR4 (human)): 91.9%
residual activity (PAK7 (human)): 89.3%
residual activity (INSR (human)): 66.8%
residual activity (PLK3 (human)): 93%
residual activity (TEC (human)): 105%
residual activity (CDK6 CCND1 (human)): 52.8%
residual activity (MATK (human)): 98%
residual activity (CDK5 CDK5R1 p35 (human)): 23.8%
residual activity (SRPK3 (human)): 97.5%
residual activity (SRC (human)): 65.1%
residual activity (MAPK14 (human)): 97.2%
residual activity (AKT2 (human)): 92%
residual activity (STK25 (human)): 87.5%
residual activity (HIPK1 (human)): 98.9%
residual activity (NLK (human)): 94.6%
residual activity (GRK5 (human)): 103%
residual activity (IRAK1 (human)): 68.8%
residual activity (EPHB4 (human)): 85.9%
residual activity (FGFR2 (human)): 92.1%
residual activity (CDK9 CCNT1 (human)): 75.2%
residual activity (SGK2 (human)): 91.8%
residual activity (HIPK3 (human)): 89.2%
residual activity (PAK2 (human)): 96.7%
residual activity (STK33 (human)): 44.1%
residual activity (PLK2 (human)): 106%
residual activity (GSK3A (human)): 16.5%
residual activity (PRKACA (human)): 107%
residual activity (PRKCG (human)): 96.7%
residual activity (BLK (human)): 75.1%
residual activity (EPHA7 (human)): 89.3%

Cc1nc2cc3nc(-c4cccs4)cnc3cc2n1C
residual activity (CSNK1G1 (human)): 92.2%
residual activity (DMPK (human)): 100%
residual activity (BMX (human)): 117%
residual activity (MAPK13 (human)): 99.7%
residual activity (CAMK2G (human)): 101%
residual activity (PRKG1 (human)): 98.5% and 99.7%
residual activity (MELK (human)): 95.6%
residual activity (TTK (human)): 92.6%
residual activity (DDR2 (human)): 108%
residual activity (EPHA8 (human)): 100%
residual activity (SLK (human)): 94.5%
residual activity (MYLK (human)): 97%
residual activity (FGFR4 (human)): 96.3%
residual activity (PAK7 (human)): 114%
residual activity (INSR (human)): 99.9%
residual activity (PLK3 (human)): 95.6%
residual activity (TEC (human)): 158%
residual activity (CDK6 CCND1 (human)): 99.3%
residual activity (MATK (human)): 100%
residual activity (CDK5 CDK5R1 p35 (human)): 107%
residual activity (SRPK3 (human)): 96.6%
residual activity (SRC (human)): 89.9%
residual activity (MAPK14 (human)): 97.5%
residual activity (AKT2 (human)): 91.5%
residual activity (STK25 (human)): 97.3%
residual activity (HIPK1 (human)): 103%
residual activity (NLK (human)): 105%
residual activity (GRK5 (human)): 108%
residual activity (IRAK1 (human)): 113%
residual activity (EPHB4 (human)): 92.1%
residual activity (FGFR2 (human)): 91.8%
residual activity (CDK9 CCNT1 (human)): 88.3%
residual activity (SGK2 (human)): 115%
residual activity (HIPK3 (human)): 101%
residual activity (PAK2 (human)): 102%
residual activity (STK33 (human)): 91.5%
residual activity (PLK2 (human)): 99.4%
residual activity (GSK3A (human)): 94.1%
residual activity (PRKACA (human)): 100%
residual activity (PRKCG (human)): 94.9%
residual activity (BLK (human)): 99.8%
residual activity (EPHA7 (human)): 92.5%

O=C(CCCc1ccc(-c2ccccc2F)cc1)Nc1ccc(O)cc1
residual activity (CSNK1G1 (human)): 104%
residual activity (DMPK (human)): 130%
residual activity (BMX (human)): 99.6%
residual activity (MAPK13 (human)): 103%
residual activity (CAMK2G (human)): 109%
residual activity (PRKG1 (human)): 95.5% and 99.9%
residual activity (MELK (human)): 95.5%
residual activity (TTK (human)): 89.5%
residual activity (DDR2 (human)): 98.1%
residual activity (EPHA8 (human)): 114%
residual activity (SLK (human)): 102%
residual activity (MYLK (human)): 98.6%
residual activity (FGFR4 (human)): 106%
residual activity (PAK7 (human)): 90.3%
residual activity (INSR (human)): 102%
residual activity (PLK3 (human)): 95%
residual activity (TEC (human)): 86%
residual activity (CDK6 CCND1 (human)): 98.2%
residual activity (MATK (human)): 92.2%
residual activity (CDK5 CDK5R1 p35 (human)): 92.5%
residual activity (SRPK3 (human)): 93.7%
residual activity (SRC (human)): 93.7%
residual activity (MAPK14 (human)): 89%
residual activity (AKT2 (human)): 101%
residual activity (STK25 (human)): 105%
residual activity (HIPK1 (human)): 105%
residual activity (NLK (human)): 101%
residual activity (GRK5 (human)): 98.4%
residual activity (IRAK1 (human)): 100%
residual activity (EPHB4 (human)): 106%
residual activity (FGFR2 (human)): 102%
residual activity (CDK9 CCNT1 (human)): 103%
residual activity (SGK2 (human)): 101%
residual activity (HIPK3 (human)): 99.4%
residual activity (PAK2 (human)): 101%
residual activity (STK33 (human)): 97%
residual activity (PLK2 (human)): 102%
residual activity (GSK3A (human)): 98.6%
residual activity (PRKACA (human)): 99.5%
residual activity (PRKCG (human)): 98%
residual activity (BLK (human)): 101%
residual activity (EPHA7 (human)): 104%
